In ChEMBL document CHEMBL1144076, “New guaianolides and xanthine oxidase inhibitory flavonols from ajania fruticulosa” (J Nat Prod, 1999):

Molecular target: Xanthine dehydrogenase/oxidase (Homo sapiens, UniProt P47989)
Experiment: Inhibition of xanthine oxidase by spectrophotometry

Xanthine dehydrogenase/oxidase, sequence (P47989 whole entry): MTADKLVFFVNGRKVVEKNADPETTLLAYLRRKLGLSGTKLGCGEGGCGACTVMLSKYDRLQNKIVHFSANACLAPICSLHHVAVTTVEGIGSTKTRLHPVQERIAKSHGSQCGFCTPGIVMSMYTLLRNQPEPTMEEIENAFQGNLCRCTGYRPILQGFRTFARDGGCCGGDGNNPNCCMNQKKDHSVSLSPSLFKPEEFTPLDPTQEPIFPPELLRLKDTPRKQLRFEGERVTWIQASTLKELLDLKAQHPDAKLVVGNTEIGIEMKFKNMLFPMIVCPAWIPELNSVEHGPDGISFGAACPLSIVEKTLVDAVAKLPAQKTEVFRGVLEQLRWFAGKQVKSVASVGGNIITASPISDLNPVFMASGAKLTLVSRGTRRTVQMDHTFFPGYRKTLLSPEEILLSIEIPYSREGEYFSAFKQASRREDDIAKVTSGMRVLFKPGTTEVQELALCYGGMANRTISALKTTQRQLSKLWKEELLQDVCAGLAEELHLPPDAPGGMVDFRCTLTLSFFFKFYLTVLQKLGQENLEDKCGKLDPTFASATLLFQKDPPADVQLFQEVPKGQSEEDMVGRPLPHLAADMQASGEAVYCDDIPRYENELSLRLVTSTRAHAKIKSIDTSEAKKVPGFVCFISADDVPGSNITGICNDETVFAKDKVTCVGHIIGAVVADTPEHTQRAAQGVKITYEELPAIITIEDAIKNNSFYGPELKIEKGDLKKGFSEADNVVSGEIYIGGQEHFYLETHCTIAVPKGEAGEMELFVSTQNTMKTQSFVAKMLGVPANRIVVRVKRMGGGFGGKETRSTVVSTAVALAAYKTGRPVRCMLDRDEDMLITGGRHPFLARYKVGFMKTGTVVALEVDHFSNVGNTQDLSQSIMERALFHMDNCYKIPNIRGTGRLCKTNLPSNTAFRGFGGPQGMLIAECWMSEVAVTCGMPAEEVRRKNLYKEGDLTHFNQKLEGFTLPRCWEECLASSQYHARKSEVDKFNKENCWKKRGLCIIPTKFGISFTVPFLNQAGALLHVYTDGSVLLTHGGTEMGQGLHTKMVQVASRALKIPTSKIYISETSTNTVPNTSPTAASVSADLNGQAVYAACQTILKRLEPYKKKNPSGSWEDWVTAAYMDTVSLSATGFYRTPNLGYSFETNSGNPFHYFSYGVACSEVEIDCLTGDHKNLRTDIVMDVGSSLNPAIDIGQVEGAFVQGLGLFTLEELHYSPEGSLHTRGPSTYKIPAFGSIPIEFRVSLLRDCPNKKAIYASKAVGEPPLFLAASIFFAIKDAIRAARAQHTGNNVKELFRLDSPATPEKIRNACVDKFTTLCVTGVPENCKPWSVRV

IC50 [µM] | Compound
36 | COc1c(O)cc2oc(-c3ccc(O)c(O)c3)c(OC)c(=O)c2c1O [AXILLARIN]
36.5 | COc1ccc(-c2oc3cc(O)c(OC)c(O)c3c(=O)c2OC)cc1 [SANTIN]
